The source of these data is the RepoRT retention time repository (doi:10.1039/c4mb00346b).

Each structure is given as a SMILES string.

A short description of this series: HILIC, Merck SeQuant ZIC-pHILIC, 150 × 2.1 mm, 5 µm, 0.1 mL/min, estimated dead time 3.3 min; A: acetonitrile; B: water + 10 mM ammonium carbonate; gradient (min/%B) 0/20 30/80. As to conditions: stereoisomer not certain.

`OCC1OCC(O)C(O)C1O` (stereo unspecified) [1,5-Anhydroglucitol]: the LC retention time is 9.2 min. Consider `Cn1cnc2c(ncn2C2OC(CO)C(O)C2O)c1=N` (stereo unspecified) [1-Methyl-adenosine], for which the LC retention time was 11.1 min.

Turning to `Cn1c(N)nc2c(ncn2C2OC(CO)C(O)C2O)c1=O` (stereo unspecified) [1-Methyl-guanosine], the LC retention time is 7.1 min.

As to `NC(CCCC(=O)O)C(=O)O` (stereo unspecified) [2-Aminoadipate], the LC retention time was 12.2 min. In the case of `O=C(O)CCC(=O)C(=O)O` [2-Oxoglutarate], the LC retention time is 12.9 min. Under `Nc1ncnc2c1ncn2C1OC2COP(=O)(O)OC2C1O` (stereo unspecified) [3',5'-cAMP] stands 7.1 min; under `Nc1ccc(C(=O)O)cc1` [4-Aminobenzoate], 7.2 min; under `O=C(O)C(O)C(O)C(O)C(O)COP(=O)(O)O` (stereo unspecified) [6-Phosphogluconate], 15 min.

In the case of `Nc1ncnc2c1ncn2C1OC(COP(=O)(O)OP(=O)(O)O)C(O)C1O` (stereo unspecified) [ADP], the LC retention time is 12.4 min. In the case of `NC(=O)c1ncn(C2OC(COP(=O)(O)O)C(O)C2O)c1N` (stereo unspecified) [AICAR], the LC retention time is 12.7 min. `Nc1ncnc2c1ncn2C1OC(COP(=O)(O)O)C(O)C1O` (stereo unspecified) [AMP]: the LC retention time was 11.5 min. As for `Nc1ncnc2c1ncn2C1OC(COP(=O)(O)OP(=O)(O)OP(=O)(O)O)C(O)C1O` (stereo unspecified) [ATP], the LC retention time was 13.8 min.

As to `CC(=O)SCCNC(=O)CCNC(=O)C(O)C(C)(C)COP(=O)(O)OP(=O)(O)OCC1OC(n2cnc3c(N)ncnc32)C(O)C1OP(=O)(O)O` (stereo unspecified) [Acetyl-CoA], the LC retention time is 10.5 min. Take `CC(=O)OC(CC(=O)[O-])C[N+](C)(C)C` (stereo unspecified) [Acetyl-carnitine]: the LC retention time was 8.5 min. Regarding `Nc1ncnc2nc[nH]c12` [Adenine], the LC retention time was 6.6 min. With `Nc1ncnc2c1ncn2C1OC(CO)C(O)C1O` (stereo unspecified) [Adenosine], the LC retention time is 6.2 min.

As for `NC(N)=NCCCC(N)C(=O)O` (stereo unspecified) [Arginine], the LC retention time is 24.8 min. With `NC(=NCCCC(N)C(=O)O)NC(CC(=O)O)C(=O)O` (stereo unspecified) [Arginino-succinate], the LC retention time is 14.2 min.

On to `NC(=O)CC(N)C(=O)O` (stereo unspecified) [Asparagine], for which the LC retention time was 12.4 min. Turning to `NC(CC(=O)O)C(=O)O` (stereo unspecified) [Aspartate], the LC retention time is 12.5 min. With `C[N+](C)(C)CC(=O)[O-]` [Betaine], the LC retention time is 8.6 min.

Regarding `O=C(O)CCCCC1SCC2NC(=O)NC21` (stereo unspecified) [Biotin], the LC retention time is 6.2 min. Regarding `C[N+](C)(C)CCCC(=O)O` [Butyro-betaine], the LC retention time is 10.9 min. Under `CCCC(=O)OC(CC(=O)[O-])C[N+](C)(C)C` (stereo unspecified) [Butyryl-carnitine] stands 6.2 min. As for `C[N+](C)(C)CCOP(=O)(O)OP(=O)([O-])OCC1OC(n2ccc(N)nc2=O)C(O)C1O` (stereo unspecified) [CDP-choline], the LC retention time was 13 min. As to `Nc1ccn(C2OC(COP(=O)(O)OP(=O)(O)O)C(O)C2O)c(=O)n1` (stereo unspecified) [CDP], the LC retention time was 14.7 min.

`Nc1ccn(C2OC(COP(=O)(O)O)C(O)C2O)c(=O)n1` (stereo unspecified) [CMP]: the LC retention time is 13.2 min.

`Nc1ccn(C2OC(COP(=O)(O)OP(=O)(O)OP(=O)(O)O)C(O)C2O)c(=O)n1` (stereo unspecified) [CTP]: the LC retention time was 15.5 min. For the compound `C[N+](C)(C)CC(O)CC(=O)[O-]` (stereo unspecified) [Carnitine], the LC retention time was 10.9 min. Under `CC(O)(CC(=O)O)C(=O)O` (stereo unspecified) [Citramalate] stands 12.6 min; under `O=C(O)CC(O)(CC(=O)O)C(=O)O` [Citrate], 15.5 min. Consider `NC(=O)NCCCC(N)C(=O)O` (stereo unspecified) [Citrulline], for which the LC retention time is 13 min. Turning to `CC(C)(COP(=O)(O)OP(=O)(O)OCC1OC(n2cnc3c(N)ncnc32)C(O)C1OP(=O)(O)O)C(O)C(=O)NCCC(=O)NCCS` (stereo unspecified) [CoA], the LC retention time was 11.7 min. In the case of `CN(CC(=O)O)C(=N)N` [Creatine] it was 12.1 min; in that of `CN1CC(=O)NC1=N` [Creatinine], 6.9 min.

As for `Nc1ccn(C2OC(CO)C(O)C2O)c(=O)n1` (stereo unspecified) [Cytidine], the LC retention time was 9.1 min. For the compound `CCCCCCCCCC(=O)OC(CC(=O)[O-])C[N+](C)(C)C` (stereo unspecified) [Decanoyl-carnitine], the LC retention time is 4.2 min. Under `CN(C)C(N)=NCCCC(N)C(=O)O` (stereo unspecified) [Dimethyl-arginine] stands 20 min. `CN(C)c1nc2c(ncn2C2OC(CO)C(O)C2O)c(=O)[nH]1` (stereo unspecified) [Dimethyl-guanosine]: the LC retention time is 6 min.

Regarding `C[NH+](C)C(Cc1cnc[nH]1)C(=O)[O-]` (stereo unspecified) [Dimethyl-histidine], the LC retention time is 9.7 min. For the compound `CN(C)CCCCC(N)C(=O)O` (stereo unspecified) [Dimethyl-lysine], the LC retention time was 19.2 min. As to `C[N+]1(C)CCCC1C(=O)[O-]` (stereo unspecified) [Dimethyl-proline (stachydrine)], the LC retention time was 7.9 min. Take `O=C(O)C(COP(=O)(O)O)OP(=O)(O)O` (stereo unspecified) [Diphospho-glycerate]: the LC retention time was 15.6 min. Take `C[N+](C)(C)C(Cc1cnc([S-])[nH]1)C(=O)O` (stereo unspecified) [Ergothioneine]: the LC retention time is 12.1 min.

On to `Cc1cc2nc3c(=O)[nH]c(=O)nc-3n(CC(O)C(O)C(O)COP(=O)(O)OP(=O)(O)OCC3OC(n4cnc5c(N)ncnc54)C(O)C3O)c2cc1C` (stereo unspecified) [FAD], for which the LC retention time is 9.4 min. In the case of `O=P(O)(O)OCC1OC(O)(COP(=O)(O)O)C(O)C1O` (stereo unspecified) [Fructose-1,6-diphosphate], the LC retention time is 15.5 min.

Take `O=P(O)(O)OCC1OC(O)(CO)C(O)C1O` (stereo unspecified) [Fructose-6-phosphate]: the LC retention time is 13.3 min.

For `O=C(O)C=CC(=O)O` [Fumarate], the LC retention time is 13.1 min. Turning to `Nc1nc2c(ncn2C2OC(COP(=O)(O)OP(=O)(O)OC3OC(CO)C(O)C(O)C3O)C(O)C2O)c(=O)[nH]1` (stereo unspecified) [GDP-glucose], the LC retention time was 15.5 min.

Turning to `Nc1nc2c(ncn2C2OC(COP(=O)(O)OP(=O)(O)O)C(O)C2O)c(=O)[nH]1` (stereo unspecified) [GDP], the LC retention time is 15.5 min.

For `Nc1nc2c(ncn2C2OC(COP(=O)(O)O)C(O)C2O)c(=O)[nH]1` (stereo unspecified) [GMP], the LC retention time is 14.1 min.

As for `Nc1nc2c(ncn2C2OC(COP(=O)(O)OP(=O)(O)OP(=O)(O)O)C(O)C2O)c(=O)[nH]1` (stereo unspecified) [GTP], the LC retention time was 16.4 min.

As to `O=C(O)C(O)C(O)C(O)C(O)CO` (stereo unspecified) [Gluconate], the LC retention time was 11.4 min. For `NC1C(O)OC(CO)C(O)C1O` (stereo unspecified) [Glucosamine], the LC retention time was 11.6 min. With `O=P(O)(O)OCC1OC(O)C(O)C(O)C1O` (stereo unspecified) [Glucose-6-phosphate], the LC retention time was 14.2 min. `OCC1OC(O)C(O)C(O)C1O` (stereo unspecified) [Glucose]: the LC retention time was 12 min.

As to `COC(=O)C(N)CCC(=O)O` (stereo unspecified) [Glutamate methyl ester], the LC retention time is 7.1 min. Under `NC(CCC(=O)O)C(=O)O` (stereo unspecified) [Glutamate] stands 12.1 min; under `NC(=O)CCC(N)C(=O)O` (stereo unspecified) [Glutamine], 12.2 min; under `O=C(O)CCCC(=O)O` [Glutarate], 12 min. In the case of `NC(CCC(=O)NC(CSSCC(NC(=O)CCC(N)C(=O)O)C(=O)NCC(=O)O)C(=O)NCC(=O)O)C(=O)O` (stereo unspecified) [Glutathione disulfide (GSSG)] it was 15 min.
